Where “and” joins values, the source holds several entries; their conditions need not be identical. Equal entries are not always repeated. ± gives the uncertainty stated by the source.
In the case of `CC(C)CCO`, the viscosity (293.15 K, 101.33 kPa) is reported as 4.579 ± 0.046 mPa·s, the viscosity (298.1 K, 101 kPa) is reported as 3.841 ± 0.079 mPa·s and 3.798 ± 0.0052 mPa·s and the viscosity (298.15 K, 100 kPa) is reported as 3.74 ± 0.062 mPa·s. The viscosity (298.15 K, 101.3 kPa) was 3.48 ± 0.095 mPa·s, the viscosity (298.15 K, 101.33 kPa) was 3.581 ± 0.043 mPa·s and the viscosity (303.15 K, 101.3 kPa) was 2.95 ± 0.081 mPa·s and 2.958 ± 0.034 mPa·s and 2.96 ± 0.036 mPa·s. The viscosity (308.15 K, 100 kPa) was 2.654 ± 0.059 mPa·s, the viscosity (308.15 K, 101 kPa) was 2.805 ± 0.044 mPa·s and 2.61 ± 0.06 mPa·s and 2.881 ± 0.033 mPa·s and the viscosity (308.15 K, 101.3 kPa) was 2.53 ± 0.069 mPa·s. For the same molecule, the viscosity (308.15 K, 101.33 kPa) was 2.59 ± 0.032 mPa·s, the viscosity (313.15 K, 101.3 kPa) was 2.21 ± 0.061 mPa·s and the viscosity (313.15 K, 101.33 kPa) was 2.537 ± 0.025 mPa·s and 2.391 ± 0.028 mPa·s. The viscosity (318.15 K, 101 kPa) was 2.05 ± 0.04 mPa·s and 2.23 ± 0.026 mPa·s, the viscosity (323.15 K, 101 kPa) was 1.867 ± 0.036 mPa·s and 1.974 ± 0.023 mPa·s and the viscosity (323.15 K, 101.33 kPa) was 1.827 ± 0.022 mPa·s.
`CC(CC(C)(C)C)CP(=O)(O)CC(C)CC(C)(C)C` (stereo unspecified) gave a viscosity (298.15 K, 101 kPa) of 120 ± 2.2 mPa·s.
For `CCCCCCCCCCOC(C)=O`, the viscosity (303.15 K, 101.3 kPa) was 2.145 ± 0.016 mPa·s.
Molecule `C[C@@H]1CCCC[C@H]1O` has a viscosity (298.15 K, 101 kPa) of 37.35 ± 0.49 mPa·s and a viscosity (303.15 K, 101 kPa) of 25.29 ± 0.38 mPa·s.
For `Cc1cccc(Cl)c1`, the viscosity (303.15 K, 100 kPa) was 0.743 ± 0.05 mPa·s, the viscosity (303.15 K, 101 kPa) was 0.751 ± 0.013 mPa·s and 0.743 ± 0.02 mPa·s and the viscosity (308.15 K, 100 kPa) was 0.701 ± 0.05 mPa·s. The viscosity (308.15 K, 101 kPa) was 0.701 ± 0.02 mPa·s, the viscosity (313.15 K, 100 kPa) was 0.663 ± 0.05 mPa·s and the viscosity (313.15 K, 101 kPa) was 0.652 ± 0.011 mPa·s and 0.663 ± 0.019 mPa·s. It also gave a viscosity (318.15 K, 100 kPa) of 0.624 ± 0.05 mPa·s and a viscosity (318.15 K, 101 kPa) of 0.624 ± 0.018 mPa·s.
In the case of `FC(F)(F)C(F)(F)C(F)(F)C(F)(F)C(F)(F)C(F)(F)F`, the viscosity (298 K, 101 kPa) is reported as 0.635 ± 0.014 mPa·s, the viscosity (303 K, 101 kPa) is reported as 0.589 ± 0.013 mPa·s and the viscosity (308 K, 101 kPa) is reported as 0.548 ± 0.012 mPa·s.
In the case of `Oc1ccc(Cl)cc1`, the viscosity (308.15 K, 101.33 kPa) is reported as 8.228 ± 0.13 mPa·s.

Source: the CheMixHub viscosity set
